Assay results taken from US7183320B2, “Benzoylsulfonamides and sulfonylbenzamidines for use as antitumour agents” (Eli Lilly and Company, priority 2002, dated 2007).

How the values were obtained:
HUMAN BREAST WSU-Br-1 = assay: Upstaged human breast WSU-Br-1 xenograft (Table VIII); assay type: in vivo; settings: Balb/C SCID female mice
Source text: (§1) Conventional Murine Tumor and Human Tumor Xenouraft Assays
(§2) Inhibition of tumors transplanted into mice is an accepted procedure for studying the efficacy of antitumor agents (Corbett, et al., In vivo Methods for Screening and Preclinical Testing; Use of rodent solid tumors for drug discovery., In: Anticancer Drug Development Guide: Preclinical Screening, Clinical Trials, and Approval, B. Teicher (ed), Humana Press Inc., Totowa, N.J., Chapter 5, pages 75–99 (1997); (Corbett, et al., Int., J. Parmacog., 33, Supplement, 102–122 (1995)). Murine tumors or human xenographs were implanted essentially as described by Corbett in In vivo Methods for Screening and Preclimical Testing; Use of rodent solid tumors for drug discovery. Briefly, the murine tumor or human xenograph was implanted subcutaneously using either 12-gauge trocar implants or counted number of cells. The location for the trocar insertion is midway between the axillary and inguinal region along the side of the mouse. The trocar is slipped approximately ¾ of an inch subcutaneously up toward the axilla before discharging the tumor fragment, and pinching the skin as the trocar is removed., Alternatively, human tumor cells prepared from a […] of donor tumors (5×10^6 cells) were implanted subcutaneously in a hind-leg of a male or female nude mouse (Charles River). Either a test compound in vehicle or vehicle alone was administered by intravenous bolus injection (iv), intraperitoneal injection (ip), or oral gavage (po). Each treatment group, as well as a group of untreated control animals, consisted of five animals per group in each experiment. Subcutaneous tumor response was monitored by tumor volume measurement performed twice each week over the course of the experiment (60–120 days). Body weights were taken as a general measure of toxicity. The subcutaneous tumor data were analyzed by determining the median tumor weight for each treatment group over the course of the experiment and calculating the tumor growth delay as the difference in days for the treatment versus the control tumors to reach a volume of either 500 or 1000 mm^3.
(§3) The compound of Example 110 was tested against a variety of murine and human tumors substantially as described supra. The parameters measured in each experiment are summarized in the following paragraphs. • Tumor Weight(mg)=(a×b^2)/2 where a=tumor length (mm) and b=tumor width (mm). • Tumor Growth Delay=T−C where T is the median time (days) required for the treatment group tumors to reach a predetermined size, and C is the median time (days) for the control group tumors to reach the same size. Tumor-free survivors are excluded from this calculation, and are tabulated separately (Tumor Free).
(§4) [formula] • where Tumor Growth Delay is as previously defined and Td is tumor volume doubling time (days), estimated from the best fit straight line from a log-linear growth plot of the control group of tumors in exponential growth (100–800 mg range) • % T/C mass—The treatment and control groups are measured when the control group tumors reach approximately 700 to 1200 mg in size (median group). The median tumor weight of each group is determined (including zeros). The T/C value in percent is an indication of antitumor effectiveness. A T/C≦42% is considered significant antitumor activity. A T/C<10% is considered to indicate highly significant antitumor activity. • Body Weight Loss Nadir—A body weight loss nadir (mean of group) of greater than 20% or drug deaths greater than 20% are considered to indicate an excessively toxic dosage in single course trials. • Activity Rating—the Activity Rating is derived from the Log Kill according to the following table: […]

[1] = tested on: MURINE COLON ADENOCARCINOMA-38; assay: Early stage murine colon adenocarcinoma-38 (Table II); assay type: in vivo; settings: BDF1 male mice
Source text: as §1, §2, §3, §4

[2] = tested on: HUMAN COLON ADENOCARCINOMA-HCT116; assay: Early stage human colon adenocarcinoma HCT116 xenograft (Table IV); assay type: in vivo; settings: Balb/C SCID female mice
Source text: as §1, §2, §3, §4

[3] = tested on: HCT116 colon carcinoma cells; assay: HCT116 colon carcinoma cell growth inhibition (WST-1, 72 hr); assay type: cell-based, human; settings: Homo sapiens, HCT-116, 72 hr exposure
Description: HCT116 Colon Carcinoma Cell Growth Inhibition
HCT116 colon carcinoma cells were grown monolayer culture in RPMI 1640 medium supplemented with 10% fetal bovine serum and 1% penicillin-streptomycin (GibcoBRL, Grand Island, N.Y.). HCT116 cells in exponential growth phase were exposed to various concentrations of the test compounds at 37° C. for 72 hr in 5% carbon dioxide/air. After exposure to the agent, the cells were washed with 0.9% phosphate buffered saline. Growth inhibition was determined using WST-1 cell proliferation reagent as described above. The results are expressed as the growth fraction of treated cells compared with control cultures. Representative compounds of the present invention were tested for efficacy against the human colon HCT116 tumor cells.

[4] = total dose 500 mg/kg: 100 mg/kg/injection IV on days 11–13 and 19–20
[5] = total dose 725 mg/kg: 145 mg/kg/injection IV on days 11–13 and 19–20
[6] = total dose 272 mg/kg IV: 20 mg/kg day 3, 40 day 4, 106 mg/kg/injection QD days 5–6
[7] = total dose 920 mg/kg IV: 40 mg/kg day 3, 80 day 4, 160 mg/kg/injection QD days 5–9
[8] = total dose 1200 mg/kg IV: 80 mg/kg day 3, 160 day 4, 240 day 5, 120 mg/kg/injection BID days 7–9
[9] = total dose 280 mg/kg: 70 mg/kg/injection IV on days 3, 4, 5, and 9
[10] = total dose 560 mg/kg: 140 mg/kg/injection IV on days 3, 4, 5, and 9

Question: What does the source list for `O=C(NS(=O)(=O)c1ccccc1)c1ccc(Cl)cc1Cl` [Example 110, N-[2,4-dichlorobenzoyl]phenylsulfonamide]?
Answer: % BODY WT LOSS AT NADIR (HUMAN BREAST WSU-Br-1; [4]): +14%; % T/C MASS (HUMAN BREAST WSU-Br-1; [4]): 0%; ACTIVITY RATING (HUMAN BREAST WSU-Br-1; [4]): ++++ (HIGHLY ACTIVE >2.8); DRUG DEATHS (HUMAN BREAST WSU-Br-1; [4]): 0/5; GROWTH DELAY (HUMAN BREAST WSU-Br-1; [4]): 39 days; LOG KILL (HUMAN BREAST WSU-Br-1; [4]): 2.0; TUMOR FREE AT DAY 179 (HUMAN BREAST WSU-Br-1; [4]): 2/5; % BODY WT LOSS AT NADIR (HUMAN BREAST WSU-Br-1; [5]): +3.9%; % T/C MASS (HUMAN BREAST WSU-Br-1; [5]): 0%; ACTIVITY RATING (HUMAN BREAST WSU-Br-1; [5]): ++++ (HIGHLY ACTIVE >2.8); DRUG DEATHS (HUMAN BREAST WSU-Br-1; [5]): 0/5; GROWTH DELAY (HUMAN BREAST WSU-Br-1; [5]): 57 days; LOG KILL (HUMAN BREAST WSU-Br-1; [5]): 2.9; TUMOR FREE AT DAY 179 (HUMAN BREAST WSU-Br-1; [5]): 2/5; % BODY WT LOSS AT NADIR [1, 6]: +3.1%; % T/C MASS [1, 6]: 0%; ACTIVITY RATING [1, 6]: ++++ (HIGHLY ACTIVE >2.8); DRUG DEATHS [1, 6]: 0/5; GROWTH DELAY (DAYS) [1, 6]: All cures; LOG KILL [1, 6]: >4.5; TUMOR FREE AT DAY 144 [1, 6]: 5/5; % BODY WT LOSS AT NADIR [1, 7]: +7.7%; % T/C MASS [1, 7]: 0%; ACTIVITY RATING [1, 7]: ++++ (HIGHLY ACTIVE >2.8); DRUG DEATHS [1, 7]: 0/5; GROWTH DELAY (DAYS) [1, 7]: All cures; LOG KILL [1, 7]: >4.5; TUMOR FREE AT DAY 144 [1, 7]: 5/5; % BODY WT LOSS AT NADIR [1, 8]: −5.2%; % T/C MASS [1, 8]: 0%; ACTIVITY RATING [1, 8]: ++++ (HIGHLY ACTIVE >2.8); GROWTH DELAY (DAYS) [1, 8]: All cures; LOG KILL [1, 8]: >4.5; TUMOR FREE AT DAY 144 [1, 8]: 6/6; % BODY WT LOSS AT NADIR [2, 9]: 0%; % T/C MASS [2, 9]: 0%; ACTIVITY RATING [2, 9]: ++++ (HIGHLY ACTIVE >2.8); DRUG DEATHS [2, 9]: 0/5; GROWTH DELAY [2, 9]: 28 days; LOG KILL [2, 9]: 3.4; TUMOR FREE AT DAY 115 [2, 9]: 2/5; % BODY WT LOSS AT NADIR [2, 10]: −4.0%; % T/C MASS [2, 10]: 0%; ACTIVITY RATING [2, 10]: ++++ (HIGHLY ACTIVE >2.8); DRUG DEATHS [2, 10]: 0/5; GROWTH DELAY [2, 10]: 56 days; LOG KILL [2, 10]: 6.7; TUMOR FREE AT DAY 115 [2, 10]: 2/5; IC50 [3]: 3.5 µM
